For 3 compounds, IC50, Stability and solubility results are on record in ChEMBL document CHEMBL1165953, “Synthesis and biological evaluation of 4(5)-(6-methylpyridin-2-yl)imidazoles and -pyrazoles as transforming growth factor-beta type 1 receptor kinase inhibitors” (Bioorg Med Chem, 2010).

The target of series [1] is Vascular endothelial growth factor receptor 3 (Homo sapiens, UniProt P35916). Put plainly: Inhibition of VEGFR3.
For series [2], the target named is Platelet-derived growth factor receptor alpha (Homo sapiens, UniProt P16234). Put plainly: Inhibition of PDGFRalpha.
Series [3] addresses Mitogen-activated protein kinase 14 (Homo sapiens, UniProt Q16539).
Series [4] has as its target T1, Serine/threonine-protein kinase D1 (Homo sapiens, UniProt Q15139).
T1 sequence (Q15139 whole entry): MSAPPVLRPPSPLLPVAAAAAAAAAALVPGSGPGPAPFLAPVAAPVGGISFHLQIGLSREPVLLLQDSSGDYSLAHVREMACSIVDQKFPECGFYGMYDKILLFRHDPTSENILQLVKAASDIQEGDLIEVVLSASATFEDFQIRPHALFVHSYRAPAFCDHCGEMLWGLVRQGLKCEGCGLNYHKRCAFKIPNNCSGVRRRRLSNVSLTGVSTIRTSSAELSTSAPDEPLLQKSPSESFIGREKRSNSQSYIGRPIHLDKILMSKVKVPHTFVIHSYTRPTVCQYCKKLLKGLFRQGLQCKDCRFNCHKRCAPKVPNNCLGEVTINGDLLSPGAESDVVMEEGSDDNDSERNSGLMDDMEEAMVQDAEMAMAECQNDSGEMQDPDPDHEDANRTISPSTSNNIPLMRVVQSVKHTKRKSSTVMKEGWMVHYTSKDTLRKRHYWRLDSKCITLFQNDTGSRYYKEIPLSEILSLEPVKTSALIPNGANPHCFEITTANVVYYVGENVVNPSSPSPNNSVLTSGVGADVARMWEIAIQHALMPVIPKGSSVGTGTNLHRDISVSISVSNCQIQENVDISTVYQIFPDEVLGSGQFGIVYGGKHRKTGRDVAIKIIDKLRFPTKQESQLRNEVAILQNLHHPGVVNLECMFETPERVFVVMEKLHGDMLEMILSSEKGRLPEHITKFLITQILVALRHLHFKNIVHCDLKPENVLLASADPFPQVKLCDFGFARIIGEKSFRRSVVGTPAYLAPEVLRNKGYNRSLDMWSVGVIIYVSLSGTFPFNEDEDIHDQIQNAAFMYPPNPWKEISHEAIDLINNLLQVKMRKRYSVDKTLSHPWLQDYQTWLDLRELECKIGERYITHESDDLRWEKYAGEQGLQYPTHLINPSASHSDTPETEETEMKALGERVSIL
The experiment in a line: Inhibition of PKCmu.

A short description of series [5]: Metabolic stability assessed as 3-((4-(2-hydroxyquinolin-6-yl)-5-(6-methylpyridin-2-yl)-1H-imidazol-2-yl)methyl)benzamide or 3-((4-(3-hydroxyquinolin-6-yl)-5-(6-methylpyridin-2-yl)-1H-imidazol-2-yl)methyl)benzamide levels at 120 uM by HPLC analysis in presence human recombinant CYP3A4. Conditions: recombinant enzyme. The format is ADME.
A short description of series [6]: Aqueous solubility in buffer solution at pH 1.2. The format is physicochemical.
Series [7] can be described thus: Metabolic stability assessed as 3-((4-(2-hydroxyquinolin-6-yl)-5-(6-methylpyridin-2-yl)-1H-imidazol-2-yl)methyl)benzamide or 3-((4-(3-hydroxyquinolin-6-yl)-5-(6-methylpyridin-2-yl)-1H-imidazol-2-yl)methyl)benzamide levels at 120 uM by HPLC analysis in presence human recombinant CYP2C19. Conditions: recombinant enzyme. The format is ADME.
For the next series, the target named is T2, TGF-beta receptor type-1 (Homo sapiens, UniProt P36897).
T2 sequence (P36897 whole entry): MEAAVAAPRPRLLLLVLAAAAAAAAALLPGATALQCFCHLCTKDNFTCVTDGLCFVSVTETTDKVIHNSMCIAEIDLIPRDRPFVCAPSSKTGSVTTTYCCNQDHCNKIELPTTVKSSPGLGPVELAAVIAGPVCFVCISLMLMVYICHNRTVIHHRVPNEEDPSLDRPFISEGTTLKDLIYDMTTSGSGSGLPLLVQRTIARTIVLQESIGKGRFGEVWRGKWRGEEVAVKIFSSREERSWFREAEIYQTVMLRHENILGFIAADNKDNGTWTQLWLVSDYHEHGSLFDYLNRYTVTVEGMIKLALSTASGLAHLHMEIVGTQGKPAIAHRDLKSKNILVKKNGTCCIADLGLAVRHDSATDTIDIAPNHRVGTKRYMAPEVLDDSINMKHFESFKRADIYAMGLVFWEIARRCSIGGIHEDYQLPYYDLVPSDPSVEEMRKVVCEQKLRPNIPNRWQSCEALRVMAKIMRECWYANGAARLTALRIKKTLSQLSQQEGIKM

A short description of series [8]: Metabolic stability assessed as 3-((4-(2-hydroxyquinolin-6-yl)-5-(6-methylpyridin-2-yl)-1H-imidazol-2-yl)methyl)benzamide or 3-((4-(3-hydroxyquinolin-6-yl)-5-(6-methylpyridin-2-yl)-1H-imidazol-2-yl)methyl)benzamide levels at 120 uM by HPLC analysis in presence human recombinant CYP2C8. In kind it is ADME. The settings on record: recombinant enzyme.
Series [9] deals with Vascular endothelial growth factor receptor 1 (Homo sapiens, UniProt P17948). The experiment in a line: Inhibition of VEGFR1.
Sequence of Vascular endothelial growth factor receptor 1 (P17948 whole entry): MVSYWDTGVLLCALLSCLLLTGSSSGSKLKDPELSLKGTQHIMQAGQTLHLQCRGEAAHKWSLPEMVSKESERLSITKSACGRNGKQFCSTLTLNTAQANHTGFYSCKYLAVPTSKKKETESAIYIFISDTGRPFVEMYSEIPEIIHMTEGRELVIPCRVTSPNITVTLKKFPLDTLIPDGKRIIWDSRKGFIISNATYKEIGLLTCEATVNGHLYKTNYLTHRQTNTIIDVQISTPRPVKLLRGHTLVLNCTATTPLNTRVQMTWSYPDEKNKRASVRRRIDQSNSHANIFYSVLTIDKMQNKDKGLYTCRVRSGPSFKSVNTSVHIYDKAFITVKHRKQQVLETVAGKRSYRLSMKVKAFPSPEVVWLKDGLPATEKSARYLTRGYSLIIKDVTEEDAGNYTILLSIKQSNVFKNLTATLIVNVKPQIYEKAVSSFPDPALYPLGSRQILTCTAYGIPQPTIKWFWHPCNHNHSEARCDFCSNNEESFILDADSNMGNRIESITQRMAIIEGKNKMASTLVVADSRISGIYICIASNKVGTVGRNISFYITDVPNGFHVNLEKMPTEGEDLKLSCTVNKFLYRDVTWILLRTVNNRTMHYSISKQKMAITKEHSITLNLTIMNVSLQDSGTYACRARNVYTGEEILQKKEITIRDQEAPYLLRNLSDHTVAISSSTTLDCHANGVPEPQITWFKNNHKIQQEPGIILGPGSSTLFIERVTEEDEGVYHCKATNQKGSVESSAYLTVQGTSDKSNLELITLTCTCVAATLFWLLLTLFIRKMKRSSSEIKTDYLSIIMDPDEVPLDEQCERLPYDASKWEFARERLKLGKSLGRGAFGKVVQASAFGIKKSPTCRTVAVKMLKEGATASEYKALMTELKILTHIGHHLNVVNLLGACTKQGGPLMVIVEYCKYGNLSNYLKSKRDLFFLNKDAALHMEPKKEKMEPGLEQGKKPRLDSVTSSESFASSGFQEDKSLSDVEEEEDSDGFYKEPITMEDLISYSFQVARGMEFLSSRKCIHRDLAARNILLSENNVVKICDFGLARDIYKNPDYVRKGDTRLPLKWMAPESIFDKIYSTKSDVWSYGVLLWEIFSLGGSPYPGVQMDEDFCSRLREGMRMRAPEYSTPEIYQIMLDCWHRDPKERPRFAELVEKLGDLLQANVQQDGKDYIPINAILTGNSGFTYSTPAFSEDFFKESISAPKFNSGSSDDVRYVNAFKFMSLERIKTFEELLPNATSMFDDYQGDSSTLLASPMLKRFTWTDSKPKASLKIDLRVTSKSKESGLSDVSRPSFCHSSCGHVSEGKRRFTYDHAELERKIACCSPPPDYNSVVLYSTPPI
The target of series [10] is Vascular endothelial growth factor receptor 2 (Homo sapiens, UniProt P35968). Put plainly: Inhibition of VEGFR2.
Sequence of Vascular endothelial growth factor receptor 2 (P35968 whole entry): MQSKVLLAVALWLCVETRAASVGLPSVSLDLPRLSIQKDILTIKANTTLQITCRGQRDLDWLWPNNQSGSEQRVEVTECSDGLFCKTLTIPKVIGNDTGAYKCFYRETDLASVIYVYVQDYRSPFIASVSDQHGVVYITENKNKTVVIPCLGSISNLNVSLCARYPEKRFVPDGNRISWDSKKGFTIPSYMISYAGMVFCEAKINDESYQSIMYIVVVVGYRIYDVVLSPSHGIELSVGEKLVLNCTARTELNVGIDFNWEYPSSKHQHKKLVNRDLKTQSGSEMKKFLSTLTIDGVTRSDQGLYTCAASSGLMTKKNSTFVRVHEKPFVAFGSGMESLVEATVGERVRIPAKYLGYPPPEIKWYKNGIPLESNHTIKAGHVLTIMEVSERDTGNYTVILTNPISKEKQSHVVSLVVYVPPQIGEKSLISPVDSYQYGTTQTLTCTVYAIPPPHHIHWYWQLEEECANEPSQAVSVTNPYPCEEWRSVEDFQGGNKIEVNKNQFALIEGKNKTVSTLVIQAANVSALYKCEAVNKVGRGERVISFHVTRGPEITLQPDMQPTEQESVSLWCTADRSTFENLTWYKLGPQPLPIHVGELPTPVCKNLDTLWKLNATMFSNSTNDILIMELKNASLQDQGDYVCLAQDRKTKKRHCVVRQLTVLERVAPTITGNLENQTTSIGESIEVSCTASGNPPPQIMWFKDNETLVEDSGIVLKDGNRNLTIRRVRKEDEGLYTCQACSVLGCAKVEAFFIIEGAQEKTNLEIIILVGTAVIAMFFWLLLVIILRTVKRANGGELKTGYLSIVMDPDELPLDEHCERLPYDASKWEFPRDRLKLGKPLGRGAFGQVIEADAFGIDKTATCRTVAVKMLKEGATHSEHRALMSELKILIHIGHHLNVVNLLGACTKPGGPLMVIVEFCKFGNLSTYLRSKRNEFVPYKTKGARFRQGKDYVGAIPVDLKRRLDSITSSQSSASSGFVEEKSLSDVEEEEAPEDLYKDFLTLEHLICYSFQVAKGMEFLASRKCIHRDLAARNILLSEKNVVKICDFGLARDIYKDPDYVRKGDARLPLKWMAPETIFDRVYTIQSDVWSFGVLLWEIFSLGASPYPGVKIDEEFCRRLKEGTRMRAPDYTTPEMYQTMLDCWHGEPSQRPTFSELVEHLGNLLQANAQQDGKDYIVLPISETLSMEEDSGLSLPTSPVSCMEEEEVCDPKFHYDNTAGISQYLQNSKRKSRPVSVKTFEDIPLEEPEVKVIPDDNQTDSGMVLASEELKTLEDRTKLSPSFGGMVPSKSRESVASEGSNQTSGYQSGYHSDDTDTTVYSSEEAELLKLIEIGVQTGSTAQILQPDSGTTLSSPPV
Series [11] is described as follows: Metabolic stability assessed as 3-((4-(2-hydroxyquinoxalin- 6-yl)-5-(6-methylpyridin-2-yl)-1H-imidazol-2-yl)methyl)benzamide or 3-((4-(3-hydroxyquinoxalin-6-yl)-5-(6-methylpyridin-2-yl)- 1H-imidazol-2-yl)methyl)benzamide) levels at 120 uM by HPLC analysis in presence human recombinant CYP2C8. The format is ADME. The settings on record: recombinant enzyme.
Series [12] in a line: Metabolic stability assessed as 3-((4-(2-hydroxyquinoxalin- 6-yl)-5-(6-methylpyridin-2-yl)-1H-imidazol-2-yl)methyl)benzamide or 3-((4-(3-hydroxyquinoxalin-6-yl)-5-(6-methylpyridin-2-yl)- 1H-imidazol-2-yl)methyl)benzamide) levels at 120 uM by HPLC analysis in presence human recombinant CYP2D6. The settings on record: recombinant enzyme. In kind it is ADME.
A short description of series [13]: Metabolic stability assessed as 3-((4-(2-hydroxyquinoxalin- 6-yl)-5-(6-methylpyridin-2-yl)-1H-imidazol-2-yl)methyl)benzamide or 3-((4-(3-hydroxyquinoxalin-6-yl)-5-(6-methylpyridin-2-yl)- 1H-imidazol-2-yl)methyl)benzamide) levels at 120 uM by HPLC analysis in presence human recombinant CYP2C19. In kind it is ADME. Conditions: recombinant enzyme.
Series [14] in a line: Metabolic stability assessed as 3-((4-(2-hydroxyquinoxalin- 6-yl)-5-(6-methylpyridin-2-yl)-1H-imidazol-2-yl)methyl)benzamide or 3-((4-(3-hydroxyquinoxalin-6-yl)-5-(6-methylpyridin-2-yl)- 1H-imidazol-2-yl)methyl)benzamide) levels at 120 uM by HPLC analysis in presence human recombinant CYP3A4. The format is ADME. Conditions: recombinant enzyme.

pIC50: −log10 of the molar value. Values after ≈ are worked out from the molar mass of the structure shown.

Sequence of Mitogen-activated protein kinase 14 (Q16539 whole entry): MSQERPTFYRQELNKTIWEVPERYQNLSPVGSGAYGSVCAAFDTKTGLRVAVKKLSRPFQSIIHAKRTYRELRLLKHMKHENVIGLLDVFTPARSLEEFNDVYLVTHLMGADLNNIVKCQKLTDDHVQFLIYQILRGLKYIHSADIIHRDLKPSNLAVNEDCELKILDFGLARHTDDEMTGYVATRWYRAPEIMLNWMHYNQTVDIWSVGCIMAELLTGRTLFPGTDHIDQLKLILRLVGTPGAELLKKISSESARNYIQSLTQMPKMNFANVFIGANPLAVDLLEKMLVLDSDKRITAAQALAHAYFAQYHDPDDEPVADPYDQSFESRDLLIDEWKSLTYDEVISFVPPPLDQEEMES
Sequence of Vascular endothelial growth factor receptor 3 (P35916 whole entry): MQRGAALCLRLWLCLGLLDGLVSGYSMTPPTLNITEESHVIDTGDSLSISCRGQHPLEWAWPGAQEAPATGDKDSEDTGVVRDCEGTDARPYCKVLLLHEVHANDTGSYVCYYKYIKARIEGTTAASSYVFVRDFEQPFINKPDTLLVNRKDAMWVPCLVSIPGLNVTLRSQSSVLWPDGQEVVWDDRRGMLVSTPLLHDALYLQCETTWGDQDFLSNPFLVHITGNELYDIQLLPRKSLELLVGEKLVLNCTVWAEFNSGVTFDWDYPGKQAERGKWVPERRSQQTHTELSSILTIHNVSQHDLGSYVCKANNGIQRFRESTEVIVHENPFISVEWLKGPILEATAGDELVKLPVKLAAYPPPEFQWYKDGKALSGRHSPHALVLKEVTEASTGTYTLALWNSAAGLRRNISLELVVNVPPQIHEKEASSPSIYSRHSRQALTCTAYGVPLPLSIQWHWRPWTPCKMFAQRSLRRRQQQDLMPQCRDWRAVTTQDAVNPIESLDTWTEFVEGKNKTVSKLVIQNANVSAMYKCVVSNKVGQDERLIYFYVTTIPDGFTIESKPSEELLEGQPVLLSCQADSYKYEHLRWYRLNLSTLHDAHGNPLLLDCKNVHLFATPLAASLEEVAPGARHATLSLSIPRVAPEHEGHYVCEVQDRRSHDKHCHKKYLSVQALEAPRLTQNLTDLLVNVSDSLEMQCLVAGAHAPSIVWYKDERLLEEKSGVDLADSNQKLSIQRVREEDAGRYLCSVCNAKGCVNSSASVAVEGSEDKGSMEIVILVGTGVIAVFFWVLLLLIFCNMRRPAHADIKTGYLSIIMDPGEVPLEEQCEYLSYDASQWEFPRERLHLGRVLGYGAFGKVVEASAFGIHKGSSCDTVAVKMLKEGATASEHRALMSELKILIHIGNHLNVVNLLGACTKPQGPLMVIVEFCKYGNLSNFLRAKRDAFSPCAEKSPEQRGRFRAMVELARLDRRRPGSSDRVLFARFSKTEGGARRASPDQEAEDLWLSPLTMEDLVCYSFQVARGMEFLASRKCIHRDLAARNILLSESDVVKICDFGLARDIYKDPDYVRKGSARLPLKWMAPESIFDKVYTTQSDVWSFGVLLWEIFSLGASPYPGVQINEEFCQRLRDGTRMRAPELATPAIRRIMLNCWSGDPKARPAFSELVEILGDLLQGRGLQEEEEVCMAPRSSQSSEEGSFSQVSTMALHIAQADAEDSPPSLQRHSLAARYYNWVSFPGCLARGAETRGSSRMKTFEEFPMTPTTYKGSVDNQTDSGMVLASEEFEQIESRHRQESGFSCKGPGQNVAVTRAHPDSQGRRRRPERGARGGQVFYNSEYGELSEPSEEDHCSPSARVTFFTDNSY
Description for TGF-beta receptor type-1: Inhibition of human recombinant GST-fused ALK5 expressed in Sf9 cells

In the case of `Cc1cccc(-c2nc(Cc3cccc(C(N)=O)c3)[nH]c2-c2ccc3ncccc3c2)n1`, the negative logarithm of the IC50 (pIC50) in series [1] is 6.03; in series [2], 5.52; in series [3], 6.27; in series [4], 6.19; on TGF-beta receptor type-1, 7.47; in series [9], 5.68. Besides, the pIC50 in series [10] is 5.66. Also, the Stability in series [5] was 10.6 peak area; in [7], 11.3 peak area; in series [8], 1.99 peak area. In series [6], this compound displayed a solubility of 14.3 mg/mL (≈ 34.1 mM).
`Cc1cccc(-c2[nH]c(Cc3cccc(C#N)c3)nc2-c2ccc3ncccc3c2)n1` gave a solubility in series [6] of 7.1 mg/mL (≈ 17.7 mM).
As for `Cc1cccc(-c2[nH]c(Cc3cccc(C(N)=O)c3)nc2-c2ccc3nccnc3c2)n1`, the Stability in series [11] is 33.4 peak area; in series [12], 15.4 peak area; in series [13] it was 12.4 peak area; in [14], 17 peak area.

By pIC50 is commonly meant the negative decadic logarithm of the IC50, by convention in mol/L. A low value points to a high IC50. Usually solubility stands for the dissolved amount per volume that the medium holds.
